Reference: US20240294499A1, “TARGETED PROTEIN DEGRADATION USING BIFUNCTIONAL COMPOUNDS THAT BIND UBIQUITIN LIGASE AND TARGET MCL-1 PROTEIN” (Captor Therapeutics S.A., priority 2021, published 2024)
Counter-ions that a name gives are not always drawn.

Assays:
[1] = test system: MV-4-11 cells; test: Cell viability assay (CellTiter-Glo), MV-4-11; assay type: cell-based; details: Homo sapiens, MV4-11, 24 hours incubation, 1% FBS, read-out: Average pIC50 by molecule MV-4-11 (converted)
Excerpt: The effect of various compounds of the invention on the viability of OPM-2, MV-4-11 and ARH-77 cell lines was investigated, using the CTG protocol described below.
OPM-2 and MV-4-11 cell lines are derived from multiple myeloma and acute myeloid leukaemia, respectively. Both cell lines are described in the literature as MCL-1 dependent lines, as opposed to lymphoblast-like ARH-77 cell line, which is described as independent of MCL-1 (Tron A E et al. Nat Commun. 2018; 9: 5341; Caenepeel S et al. Cancer Discov. 2018 December; 8(12):1582-1597).
Cells (OPM-2, MV-4-11 or ARH-77) were seeded on […] in a growth medium with FBS reduced to 1%. Next, compound stocks were pre-diluted in DMSO and added directly to the cells growth medium (final DMSO concentration: 0.5%). Compound concentrations used in this assay: 1/3 dilutions starting at 30 uM (9 to 12 points).
After 24 hours of incubation, cell viability was evaluated using CellTiter-Glo Luminescent Cell Viability Assay (Promega, cat #G7572). Luminescence signal was measured using a CLARIOstar Plus Multi-Mode Microplate Reader (574-590 nm).
Results were normalized to DMSO control.

[2] = target: [MCL-1]-[compound of formula (I)]-[CRBN/DDB1] complex (Homo sapiens, UniProt Q07820+Q96SW2); test: AlphaLISA dose response ternary complex formation assay; assay type: binding; details: read-out: AlphaLISA dose response Average pEC50 by molecule (converted)
Protocol: The effect of the bifunctional compounds of the invention on the formation of a ternary complex composed of [MCL-1]-[compound of formula (I)]-[CRBN/DDB1] was investigated with two methods: AlphaLISA dose response assay or HTRF ternary complex assay.
Two types of protein solution were prepared: • 40 nM biotinylated hMCL-1, 40 μg/ml AlphaScreen Streptavidin-coated Donor Beads in PBS buffer with 0.1% Tween-20 and 1 mM DTT, • 200 nM 6×His-CRBN/Strep-DDB1, 40 μg/ml AlphaLISA Anti-6×His Acceptor beads in PBS buffer with 0.1% Tween-20 and 1 mM DTT.
The prepared solutions were incubated at room temperature for 45 min and then the solution containing the donor beads was mixed with the solution containing the acceptor beads.
The tested compounds were dispensed onto a white 384-well AlphaPlate 384 SW. DMSO was backfilled to all wells, resulting in a final DMSO content of 2%. Wells containing only DMSO served as background. Next, 10 μl of solution with donor and acceptor beads was added to the wells.
The plate was sealed with transparent film and shaken using a VibroTurbulator for 60 see at room temperature, level 3. The plate was then spun down shortly (10 s, 1000 rcf, room temperature) and incubated at 25° C. for 30 min.
The read-out was performed with PerkinElmer Enspire Multimode Plate Reader (method for AlphaLISA 384-well low volume, Filterset: λexc=680 nm, λem=615 nm).
The results were analyzed as follows: • 1) an average of luminescence for background signal was calculated and used as a negative control; • 2) average of the maximum measured luminescence for 233 was calculated and used as an internal positive control; • 3) raw luminescence values were normalized against positive and negative controls; • 4) concentration points above the hook point were excluded; • 5) EC50 and pEC50 values were determined.

Sequence of [MCL-1]-[compound of formula (I)]-[CRBN/DDB1] complex (Q07820 whole entry): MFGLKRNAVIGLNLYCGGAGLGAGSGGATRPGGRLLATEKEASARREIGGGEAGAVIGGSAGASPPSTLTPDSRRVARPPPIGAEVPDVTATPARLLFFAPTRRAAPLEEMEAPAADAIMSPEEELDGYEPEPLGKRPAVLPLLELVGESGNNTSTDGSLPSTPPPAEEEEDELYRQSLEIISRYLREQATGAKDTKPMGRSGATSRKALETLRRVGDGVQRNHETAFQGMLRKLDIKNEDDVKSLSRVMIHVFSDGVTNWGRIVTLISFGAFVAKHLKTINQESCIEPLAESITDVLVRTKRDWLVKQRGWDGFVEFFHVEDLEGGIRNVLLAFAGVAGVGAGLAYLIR
Sequence of [MCL-1]-[compound of formula (I)]-[CRBN/DDB1] complex (Q96SW2 whole entry): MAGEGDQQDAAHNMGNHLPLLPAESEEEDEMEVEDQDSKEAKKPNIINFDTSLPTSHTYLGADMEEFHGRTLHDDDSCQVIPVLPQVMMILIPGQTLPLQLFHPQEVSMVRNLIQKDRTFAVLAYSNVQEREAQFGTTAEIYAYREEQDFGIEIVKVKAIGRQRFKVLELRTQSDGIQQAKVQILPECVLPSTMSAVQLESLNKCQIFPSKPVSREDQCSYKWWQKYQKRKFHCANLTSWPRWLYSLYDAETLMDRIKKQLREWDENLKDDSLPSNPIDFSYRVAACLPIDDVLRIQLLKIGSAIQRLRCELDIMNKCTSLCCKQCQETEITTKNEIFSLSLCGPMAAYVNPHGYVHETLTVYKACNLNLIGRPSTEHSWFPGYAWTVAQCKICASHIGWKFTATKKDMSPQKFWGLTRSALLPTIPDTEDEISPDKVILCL
Sequence of [MCL-1]-[compound of formula (I)]-[CRBN/DDB1] complex (Q16531 whole entry partner): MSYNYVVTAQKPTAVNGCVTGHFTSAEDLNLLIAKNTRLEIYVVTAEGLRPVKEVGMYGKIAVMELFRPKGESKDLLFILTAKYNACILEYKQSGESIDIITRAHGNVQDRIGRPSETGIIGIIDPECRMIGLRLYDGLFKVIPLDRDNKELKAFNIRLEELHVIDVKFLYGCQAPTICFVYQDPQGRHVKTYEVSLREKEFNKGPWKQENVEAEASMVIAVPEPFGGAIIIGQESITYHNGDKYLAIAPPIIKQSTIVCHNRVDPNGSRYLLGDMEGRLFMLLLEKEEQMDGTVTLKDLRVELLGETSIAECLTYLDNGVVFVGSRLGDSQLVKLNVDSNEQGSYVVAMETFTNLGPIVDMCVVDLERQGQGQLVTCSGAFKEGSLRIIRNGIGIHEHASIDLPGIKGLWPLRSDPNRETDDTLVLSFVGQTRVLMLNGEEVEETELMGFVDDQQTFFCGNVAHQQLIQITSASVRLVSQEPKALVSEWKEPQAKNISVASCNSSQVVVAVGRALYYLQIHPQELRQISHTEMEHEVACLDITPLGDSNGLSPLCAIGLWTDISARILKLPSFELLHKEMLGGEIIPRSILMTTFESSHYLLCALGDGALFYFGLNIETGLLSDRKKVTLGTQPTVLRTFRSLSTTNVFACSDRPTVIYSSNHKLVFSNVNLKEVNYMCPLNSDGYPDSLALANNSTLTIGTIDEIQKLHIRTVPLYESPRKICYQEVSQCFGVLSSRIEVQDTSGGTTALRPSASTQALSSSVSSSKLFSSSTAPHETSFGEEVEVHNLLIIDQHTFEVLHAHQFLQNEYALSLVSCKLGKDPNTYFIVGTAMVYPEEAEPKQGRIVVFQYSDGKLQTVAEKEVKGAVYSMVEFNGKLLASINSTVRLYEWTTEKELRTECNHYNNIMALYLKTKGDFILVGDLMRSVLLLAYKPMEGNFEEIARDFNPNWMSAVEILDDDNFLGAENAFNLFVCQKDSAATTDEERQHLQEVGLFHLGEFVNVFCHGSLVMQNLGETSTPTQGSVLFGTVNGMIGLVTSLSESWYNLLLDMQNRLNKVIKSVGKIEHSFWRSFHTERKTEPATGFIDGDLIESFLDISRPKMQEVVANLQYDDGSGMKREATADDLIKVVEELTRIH

Row | Compound | IC50 [1] [nM] | EC50 [2] [nM]
1 | Cc1nn(C)c(C)c1-c1c(Cl)ccc2c(CCCOc3cccc4ccccc34)c(C(=O)O)n(CCN3CCN(C(=O)COc4cccc5c4C(=O)N(C4CCC(=O)N(C)C4=O)C5=O)CC3)c12 (centres unmarked) [Compound 205, 6-chloro-1-(2-(4-(2-((2-(1-methyl-2,6-dioxopiperidin-3-yl)-1,3-dioxoisoindolin-4-yl)oxy)acetyl)piperazin-1-yl)ethyl)-3-(3-(naphthalen-1-yloxy)propyl)-7-(1,3,5-trimethyl-1H-pyrazol-4-yl)-1H-indole-2-carboxylic acid] | ≤ 316 | –
2 | Cc1nn(C)c(C)c1-c1c(Cl)ccc2c(CCCOc3cccc4ccccc34)c(C(=O)O)n(CCN3CC4CC(C3)N4C(=O)COc3cccc4c3C(=O)N(C3CCC(=O)NC3=O)C4=O)c12 (centres unmarked) [Compound 208, 6-chloro-1-(2-(6-(2-((2-(2,6-dioxopiperidin-3-yl)-1,3-dioxoisoindolin-4-yl)oxy)acetyl)-3,6-diazabicyclo[3.1.1]heptan-3-yl)ethyl)-3-(3-(naphthalen-1-yloxy)propyl)-7-(1,3,5-trimethyl-1H-pyrazol-4-yl)-1H-indole-2-carboxylic acid] | – | < 100
3 | Cc1nn(C)c(C)c1-c1c(Cl)ccc2c(CCCOc3cccc4ccccc34)c(C(=O)O)n(CCN3C[C@@H]4C[C@H]3CN4C(=O)COc3cccc4c3CN(C3CCC(=O)NC3=O)C4=O)c12 (stereo partly drawn) [Compound 209, 6-chloro-1-{2-[(1S,4S)-5-(2-{[2-(2,6-dioxopiperidin-3-yl)-1-oxo-2,3-dihydro-1H-isoindol-4-yl]oxy}acetyl)-2,5-diazabicyclo[2.2.1]heptan-2-yl]ethyl}-3-[3-(naphthalen-1-yloxy)propyl]-7-(1,3,5-trimethyl-1H-pyrazol-4-yl)-1H-indole-2-carboxylic acid] | – | < 100
4 | Cc1nn(C)c(C)c1-c1c(Cl)ccc2c(CCCOc3cccc4c3CCCC4)c(C(=O)O)n(CCN3CCN(C(=O)COc4cccc5c4CN(C4CCC(=O)NC4=O)C5=O)CC3)c12 (centres unmarked) [Compound 219, 6-chloro-1-(2-(4-(2-((2-(2,6-dioxopiperidin-3-yl)-1-oxoisoindolin-4-yl)oxy)acetyl)piperazin-1-yl)ethyl)-3-(3-((5,6,7,8-tetrahydronaphthalen-1-yl)oxy)propyl)-7-(1,3,5-trimethyl-1H-pyrazol-4-yl)-1H-indole-2-carboxylic acid] | – | < 10
5 | Cc1cc(OCCCc2c(C(=O)O)n(C)c3c(-c4c(C)nn(CCCOCCOCCNc5cccc6c5C(=O)N(C5CCC(=O)NC5=O)C6=O)c4C)cccc23)cc(C)c1Cl (centres unmarked) [Compound 227, 3-(3-(4-chloro-3,5-dimethylphenoxy)propyl)-7-(1-(3-(2-(2-((2-(2,6-dioxopiperidin-3-yl)-1,3-dioxoisoindolin-4-yl)amino)ethoxy)ethoxy)propyl)-3,5-dimethyl-1H-pyrazol-4-yl)-1-methyl-1H-indole-2-carboxylic acid] | – | < 1000
6 | Cc1nn(CCCOCCOCCNc2cccc3c2C(=O)N(C2CCC(=O)NC2=O)C3=O)c(C)c1-c1cccc2c(CCCOc3cccc4ccccc34)c(C(=O)O)n(CCN3CCOCC3)c12 (centres unmarked) [Compound 232, 7-(1-(3-(2-(2-((2-(2,6-dioxopiperidin-3-yl)-1,3-dioxoisoindolin-4-yl)amino)ethoxy)ethoxy)propyl)-3,5-dimethyl-1H-pyrazol-4-yl)-1-(2-morpholinoethyl)-3-(3-(naphthalen-1-yloxy)propyl)-1H-indole-2-carboxylic acid] | – | < 1000
7 | Cc1cc(OCCCc2c(C(=O)O)n(CCN3CCN(C(=O)CNc4cccc5c4C(=O)N(C4CCC(=O)NC4=O)C5=O)CC3)c3c(-c4c(C)nn(C)c4C)cccc23)cc(C)c1Cl (centres unmarked) [Compound 233, 3-(3-(4-chloro-3,5-dimethylphenoxy)propyl)-1-(2-(4-((2-(2,6-dioxopiperidin-3-yl)-1,3-dioxoisoindolin-4-yl)glycyl)piperazin-1-yl)ethyl)-7-(1,3,5-trimethyl-1H-pyrazol-4-yl)-1H-indole-2-carboxylic acid] | – | < 1000

Now from value to compound:

Row | IC50 [1] [nM] | EC50 [2] [nM] | Compound
8 | – | < 1000 | Cc1nn(C)c(COc2ccc(N3CCN(S(=O)(=O)N(C)C)CC3)cc2)c1-c1cccc2c(CCCOc3cccc4ccccc34)c(C(=O)O)n(CCN3CCN(CCCOCCOCCNc4cccc5c4C(=O)N(C4CCC(=O)NC4=O)C5=O)CC3)c12 (centres unmarked) [Compound 247, 7-(5-((4-(4-(N,N-dimethylsulfamoyl)piperazin-1-yl)phenoxy)methyl)-1,3-dimethyl-1H-pyrazol-4-yl)-1-(2-(4-(3-(2-(2-((2-(2,6-dioxopiperidin-3-yl)-1,3-dioxoisoindolin-4-yl)amino)ethoxy)ethoxy)propyl)piperazin-1-yl)ethyl)-3-(3-(naphthalen-1-yloxy)propyl)-1H-indole-2-carboxylic acid trifluoroacetate]
9 | – | < 1000 | Cc1nn(C)c(COc2ccc(N3CCN(S(=O)(=O)N(C)C)CC3)cc2)c1-c1cccc2c(CCCOc3cccc4ccccc34)c(C(=O)O)n(CCN3CCN(C(=O)COc4ccc5c(c4)C(=O)N(C4CCC(=O)NC4=O)C5=O)CC3)c12 (centres unmarked) [Compound 248, 7-(5-((4-(4-(N,N-dimethylsulfamoyl)piperazin-1-yl)phenoxy)methyl)-1,3-dimethyl-1H-pyrazol-4-yl)-1-(2-(4-(2-((2-(2,6-dioxopiperidin-3-yl)-1,3-dioxoisoindolin-5-yl)oxy)acetyl)piperazin-1-yl)ethyl)-3-(3-(naphthalen-1-yloxy)propyl)-1H-indole-2-carboxylic acid]
10 | – | < 100 | Cc1c(-c2cccc3c(CCCOc4cccc5ccccc45)c(C(=O)O)n(CCN4CCN(C(=O)COc5cccc6c5C(=O)N(C5CCC(=O)NC5=O)C6=O)CC4)c23)c(COc2ccc(Br)c(C=O)c2)nn1C (centres unmarked) [Compound 251, 7-(3-((4-Bromo-3-formylphenoxy)methyl)-1,5-dimethyl-1H-pyrazol-4-yl)-1-(2-(4-(2-((2-(2,6-dioxopiperidin-3-yl)-1,3-dioxoisoindolin-4-yl)oxy)acetyl)piperazin-1-yl)ethyl)-3-(3-(naphthalen-1-yloxy)propyl)-1H-indole-2-carboxylic acid]
11 | – | < 1000 | Cc1c2c(nn1C)CSCc1cc(n(C)n1)CSc1cc(c3ccccc3c1)OCCCc1c(C(=O)NS(=O)(=O)CCNC(=O)CCOCCOCCNc3cccc4c3C(=O)N(C3CCC(=O)NC3=O)C4=O)n(C)c3c-2c(Cl)ccc13 (centres unmarked) [Compound 261, N-{2-[({17-chloro-5,13,14,22-tetramethyl-28-oxa-2,9-dithia-5,6,12,13,22-pentaazaheptacyclo[27.7.1.1^4,^7.0^11,^15.0,^16,^21.0^20,^24.0^30,^35]octatriaconta-1(37),4(38),6,11,14,16,18,20,23,29,31,33,35-tridecaen-23-yl}formamido)sulfonyl]ethyl}-3-[2-(2-{[2-(2,6-dioxopiperidin-3-yl)-1,3-dioxo-2,3-dihydro-1H-isoindol-4-yl]amino}ethoxy)ethoxy]propanamide]
12 | ≤ 1000 | – | Cc1nn(C)c(C)c1-c1c(Cl)ccc2c(CCCOc3cccc4ccccc34)c(C(=O)O)n(CCN3CCN(C(=O)CCc4nc5c(C(=O)NC6CCC(=O)NC6=O)cccc5[nH]4)CC3)c12 (centres unmarked) [Compound 265]
13 | – | < 100 | Cc1nn(C)c(C)c1-c1c(Cl)ccc2c(CCCOc3cccc4ccccc34)c(C(=O)O)n(CCN3CCN(C(=O)COc4cc(C(F)(F)F)nc5c(C(=O)NC6CCC(=O)NC6=O)scc45)CC3)c12 (centres unmarked) [Compound 267, 6-chloro-1-(2-{4-[2-({7-[(2,6-dioxopiperidin-3-yl)carbamoyl]-2-(trifluoromethyl)thieno[3,4-b]pyridin-4-yl}oxy)acetyl]piperazin-1-yl}ethyl)-3-[3-(naphthalen-1-yloxy)propyl]-7-(1,3,5-trimethyl-1H-pyrazol-4-yl)-1H-indole-2-carboxylic acid]
14 | – | < 1000 | Cc1nn(C)c(C)c1-c1c(Cl)ccc2c(CCCOc3cccc4c3C3CCC4C3)c(C(=O)O)n(CCN3CCN(C(=O)COc4cccc5c4CN(C4CCC(=O)NC4=O)C5=O)CC3)c12 (centres unmarked) [Compound 352, 6-Chloro-1-(2-(4-(2-((2-(2,6-dioxopiperidin-3-yl)-1-oxoisoindolin-4-yl)oxy)acetyl)piperazin-1-yl)ethyl)-3-(3-((1,2,3,4-tetrahydro-1,4-methanonaphthalen-5-yl)oxy)propyl)-7-(1,3,5-trimethyl-1H-pyrazol-4-yl)-1H-indole-2-carboxylic acid]
